# Assays:
# Type in all cases: cell-based
# Mouse GPR40 = biological target: T1, Mouse GPR40 (Mus musculus, UniProt Q76JU9); assay: cAMP production in mouse GPR40-expressed CHO cells; settings: 10 minutes; for cAMP production activity, presence of forskolin: 2 μM forskolin
# T1 construct: expressed in transfected cells
# Procedure: (§1) Human and mouse GPR40-expressed CHO cells were incubated for 20 hours in a 96-well Plate at a density of 1×10^5/well. After the cells were washed twice with 100 μl of Assay Buffer (DMEM (Invitrogen) containing 0.1 mM IBMX (Wako Pure Chemical) and 0.1 mM Ro-20-1724 (Biomol)), DHA, solutions of linoleic acid and […] (both by SIGMA) in Assay Buffer in the presence or absence of 2 μM forskolin (Wako Pure Chemical) were added to the cells, followed by reacting at 37° C. for 10 minutes. After the reaction, the cells were lysed in accordance with the formulation of cAMP Screen (ABI) and the cAMP level in the cells was assayed.
# human GPR40 = biological target: T2, human GPR40 (Homo sapiens, UniProt O14842); assay: cAMP production in human GPR40-expressed CHO cells; settings: 10 minutes; for cAMP production activity, presence of forskolin: 2 μM forskolin
# T2 construct: The resulting fragment (ca. 1 kb) was introduced into vector pAKKO-111, which was used for transfection of CHO cells; expressed in transfected cells
# Procedure: as §1
# human-derived GPR40 = biological target: T3, human-derived GPR40 (Homo sapiens, UniProt O14842); assay: Intracellular calcium change (FLIPR) in CHO-K1 cells transiently expressing GPR40; settings: added in 10^−5 M to 10^−6 M; no response in vector-only control cells
# T3 construct: The DNA fragment encoding human GPR40 was acquired by the following PCR procedures; expressed in transfected cells; host or cells: CHO-K1 (transient, Lipofectamine)
# Procedure: The CHO-K1 cell line was cultured in HAM F-12 medium (Invitrogen) containing 10% fetal calf serum (Invitrogen), unless otherwise indicated. One day before transfection, 4.5×10^5 cells per 10 cm^2 were plated, followed by incubation in a CO2 incubator adjusted to a concentration of 5% CO2 at 37° C. for at least 15 hours. Using Lipofectamine reagent (Invitrogen), transfection procedures were carried out by modifications of the method attached to the reagent. When a 6-well plate was used for the incubator, the following procedures were performed. First, 2 tubes each having a 1.5 ml volume were prepared and 100 μl each of Opti-MEM-I medium (Invitrogen) was dispensed in each tube. Next, 1 μg of the expression vector was charged in one tube and in another tube, 6 μl of Lipofectamine reagent was charged, which were mixed together. The mixture was settled for 20 minutes at room temperature. To the solution, 800 μl of Opti-MEM-I medium was added and the resulting solution mixture for transfection was added to CHO-K1 cells, which had been previously washed with Opti-MEM-I medium. Then, the cells were incubated in a CO2 incubator for 6 hours. After the incubation, the cells were rinsed with PBS (Invitrogen), then scraped using 0.05% trypsin-EDTA solution (Invitrogen) and recovered by centrifugal operation. The cells obtained were counted and diluted to 5×10^4 cells per 200 μl of the medium. The dilution was dispensed onto a Black walled 96-well plate (Costar) in 200 μl each per well, followed by incubation overnight in a CO2 incubator. Various test samples were added to the CHO-K1 cells in which the receptor was transiently expressed by the transfection operation described above, whereby changes in the intracellular calcium ion level were determined using FLIPR (Molecular Device). In order to determine the changes in the intracellular calcium ion level on FLIPR, the cells were pre-treated by the following procedures. First, for the purpose of adding a fluorescent dye Fluo-3 AM (DOJIN) to the cells or washing the cells immediately before the FLIPR assay, an assay buffer was prepared. A solution obtained by adding 20 ml of 1M HEPES (pH 7.4) (DOJIN) to 1000 ml of HBSS (Invitrogen) was prepared (hereinafter HBSS/HEPES solution), to which 10 ml of a solution mixture obtained by dissolving 710 mg of Probenecid (Sigma) in 5 ml of 1N NaOH and further adding 5 ml of HBSS/HEPES solution was added. The resulting solution was used as the assay buffer. Next, 50 μg of Fluo-3AM was dissolved in 21 μl of DMSO (DOJIN) and an equal volume of 20% Pulronic acid (Molecular Probes) was added to and mixed with the solution. The mixture was then added to 10.6 ml of the assay buffer supplemented with 105 μl of fetal calf serum to prepare a fluorescent dye solution. The medium for the transfection-treated CHO-K1 cells was removed. Immediately thereafter, the fluorescent dye solution was dispensed in 100 μl each/well and the cells were incubated in a CO2 incubator for an hour so that the fluorescent dye was taken up into the cells. The cells after the incubation was washed with the assay buffer described above and set on FLIPR. A test sample added to the receptor-expressed CHO-K1 cells was prepared using the assay buffer and set on FLIPR at the same time. After various test samples were added thereto.
# Following the pre-treatment above, changes in intracellular calcium level after addition of various test samples were measured on FLIPR.
# T2 sequence (O14842 whole entry, the tested form may be a part): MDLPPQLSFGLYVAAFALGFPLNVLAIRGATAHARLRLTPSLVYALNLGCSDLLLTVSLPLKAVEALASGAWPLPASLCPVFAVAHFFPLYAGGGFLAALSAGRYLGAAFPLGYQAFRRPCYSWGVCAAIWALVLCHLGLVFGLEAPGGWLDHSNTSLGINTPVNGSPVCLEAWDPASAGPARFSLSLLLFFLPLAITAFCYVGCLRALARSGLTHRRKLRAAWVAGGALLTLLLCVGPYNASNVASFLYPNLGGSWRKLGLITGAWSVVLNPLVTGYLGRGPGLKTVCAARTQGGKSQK
# T3 sequence (O14842 whole entry, the tested form may be a part): as above
# T1 sequence (Q76JU9 whole entry): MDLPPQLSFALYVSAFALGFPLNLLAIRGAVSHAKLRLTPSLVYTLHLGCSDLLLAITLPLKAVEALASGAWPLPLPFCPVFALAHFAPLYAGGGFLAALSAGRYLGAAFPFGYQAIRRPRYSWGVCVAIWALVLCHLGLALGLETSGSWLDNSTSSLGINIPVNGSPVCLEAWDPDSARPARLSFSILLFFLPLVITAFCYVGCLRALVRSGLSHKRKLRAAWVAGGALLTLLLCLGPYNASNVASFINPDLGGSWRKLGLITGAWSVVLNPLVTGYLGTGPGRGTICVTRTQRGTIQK
SMILES,"cAMP production activity, presence of forskolin (Mouse GPR40)","cAMP production activity, absence of forskolin (Mouse GPR40)","cAMP production activity, presence of forskolin (human GPR40)","cAMP production activity, absence of forskolin (human GPR40)",response (increase in intracellular calcium level) of GPR40-expressing CHO-K1 cells (human-derived GPR40)
"CCCCC/C=C\C/C=C\C/C=C\CCCCC(=O)O [γ-Linolenic acid (C18:3), γ-Linolenic acid]",no activity was shown,did not show any cAMP production activity,weakly shown,did not show any cAMP production activity,
"CCCCCCCC/C=C\CCCCCCCC(=O)O [Oleic acid (C18:1), Oleic acid]",,,,,specifically responsive
"CC/C=C\C/C=C\C/C=C\C/C=C\C/C=C\C/C=C\CCC(=O)O [Docosahexaenoic acid (C22:6), 4Z,7Z,10Z,13Z,16Z,19Z-docosahexaenoic acid]",no activity was shown,did not show any cAMP production activity,weakly shown,did not show any cAMP production activity,specifically responsive
"CCCCC/C=C\C/C=C\CCCCCCCC(=O)O [Linoleic acid (C18:2), Linoleic acid]",no activity was shown,did not show any cAMP production activity,weakly shown,did not show any cAMP production activity,specifically responsive
"CCCCC/C=C\C/C=C\C/C=C\C/C=C\CCCC(=O)O [Arachidonic acid (C20:4), Arachidonic acid]",,,,,specifically responsive
